Measurements published in article PMC7031697, “Mechanism of Activation of AMPK by Cordycepin” (Cell Chemical Biology, 2020).
Like-named read-outs stand apart in the source and are kept apart here.

Columns and labels:
[1] = tested on: HepG2 cells; assay: Cellular oxygen consumption (Seahorse XF24); assay type: cell-based, human
Description: Cellular oxygen consumption rate (OCR) was measured using a Seahorse XF24 Extracellular Flux Analyser with 50,000 cells per well, as described previously ([Hawley et al., 2010]). HepG2 cells were cultured overnight in 24 well plates (50,000 cells/well) in standard medium as above. One hour before the experiment, the medium was replaced with 675 μl of unbuffered medium, pH 7.4: 8.3 g/L DMEM base (Sigma), 2 mM GlutaMax-1, 5 mM glucose, 32 mM NaCl, and 40 μM Phenol Red. Compounds (75 μl) were injected into wells as specified, and OCR continuously measured as described by the manufacturers of the Analyser ([Wu et al., 2007]).

[2] = tested on: HepG2 cells; assay: Measurement of cordycepin in cell medium of HepG2 cells (LC-MS); assay type: in vitro ADME, human; conditions: 100 μM added
Description: (§1) The same LC-MS system was used to detect and quantify cordycepin. LC conditions were optimized using a TSKgel Amine-80 Column (100 × 1 mm, ID 5 μm, Part No.0020010, TOSOH Bioscience). Mobile phase buffer A consisted of 0.1% (v/v) formic acid and buffer B was in 80% (v/v) acetonitrile. The column was maintained at 40°C and was equilibrated with 98% buffer B for 5 min at a constant flow rate of 0.05 mL/min. Samples were diluted 1/1500 and aliquots of 4 μL of each sample loaded onto the column. Cordycepin was eluted by decreasing buffer B from 98% to 85% within 2 min and then to 10% within 5 min. Eluents were sprayed into the TSQ Quantiva which was run in positive mode with a spray voltage of 2700, sheath gas 40, aux gas 20, sweep gas 2. Levels of cordycepin were measured using multiple reaction monitoring mode (MRM) with optimized collision energies and radio frequencies previously determined by infusing pure compound. One transition (252 > 136) was used to detect and monitor cordycepin.

[3] = as above; assay type: in vitro ADME, human; conditions: human, 100 μM added
Description: as §1

[4] = tested on: AMPK; assay: Phosphorylation of AMPK, ACC and Raptor in HepG2 cells (western blotting); assay type: cell-based, human; conditions: cordycepin at 100 μM and above, 1 h
Description: SDS-PAGE for AMPK and Raptor was performed using precast Bis-Tris 4–12% gradient polyacrylamide gels in the MOPS buffer system (Invitrogen). SDS-PAGE for ACC was performed using precast Tris-Acetate 3–8% gradient polyacrylamide gels in the Tris-Acetate buffer system (Invitrogen). Proteins were transferred to nitrocellulose membranes using the iBlot2 system (Invitrogen). Membranes were blocked for 1 hr in Li-Cor Odyssey blocking buffer. The membranes were probed with appropriate antibody (0.1–1 μg/ml) in Li-Cor Odyssey blocking buffer, except where the blotting enhancement system was used (Thermo Scientific; as per manufacturers’ instructions). Detection was performed using secondary antibody (1 μg/ml) coupled to IR 680 or IR 800 dye, or IR-streptavidin 800 dye, and the membranes were scanned using the Li-Cor Odyssey IR imager. Protein concentrations were determined by Coomassie Blue binding with bovine serum albumin as standard ([Bradford, 1976]).

[5] = tested on: HepG2 cells; assay: Clonal survival assay, HepG2; assay type: cell-based, human; conditions: for EC50: Homo sapiens, read-out: half-maximal effect on cell survival
Description: Cells were seeded into 6-well plates at equal density and treated in triplicate at 40% to 60% confluence with vehicle or cordycepin for the indicated time. Cells were trypsinized in 1 ml trypsin:EDTA for 5 min and diluted in 1 ml of complete medium. Cells in control wells were counted using a hemocytometer and 1000 cells from vehicle and cordycepin-treated wells were seeded in triplicate into 10 cm dishes containing 10 ml of medium. The dishes were incubated at 37°C for 10-15 days. […] The dishes were washed with water and the number of colonies counted manually.

[6] = parameters: method as in Wei et al., 2009; conditions: mice, single oral dose of 63 mg/kg; ref Wei et al., 2009; cited from earlier work
[7] = tested on: AMPK; parameters: method as in Guo et al., 2010; conditions: HepG2 cells, medium without serum but with 0.02% (w/v) BSA; ref Guo et al., 2010; cited from earlier work
[8] = tested on: HepG2 cells; assay: MTT assay for cell proliferation; assay type: cell-based, human
Description: After treatment for the specified time, the effect of cordycepin on cell proliferation was determined using the MTT assay kit (Abcam, ab211091) as per manufacturers’ instructions.

Nc1ncnc2c1ncn2[C@@H]1O[C@H](CO)C[C@H]1O [cordycepin, 3′-deoxyadenosine]
effect on basal oxygen uptake ([1]; 30 μM to 1 mM): only minor effects
inhibition of basal oxygen uptake ([1]; 300 μM after 45 min and 1 mM after 30 and 45 min): modest inhibition
effect on maximal oxygen uptake ([1]; after addition of the uncoupler 2,4-dinitrophenol): no significant effects
effect on residual oxygen uptake ([1]; after subsequent addition of rotenone and antimycin A): no significant effects
decline of cordycepin in the medium ([2]; by 2 h): 70%
cordycepin remaining in the medium ([2]; by 4 h): almost disappeared
half-life at 100 μM [3]: ~1.33 h
phosphorylation of Thr172 on AMPK, ACC1 Ser80 and Raptor Ser792 [4]: increased
effect on clonal survival ([5]; 100 μM): only partial effects
effect on clonal survival ([5]; 300 μM): almost complete death
effect on clonal survival ([5]; 1 mM): almost complete death
EC50 ([5]; 2 h treatment): 130 µM
EC50 ([5]; 8 h treatment): 70 µM
EC50 ([5]; 24 h treatment): 35 µM
peak plasma concentration [6]: 10 µM
plasma half-life [6]: 2.1 h
time to peak plasma concentration [6]: 1.5 h
concentration at which AMPK was activated [7]: ≥ 1 µM
effect on cell proliferation ([8]; 30 μM, after 72 h): only very small effects
decrease in cell proliferation ([8]; 100 μM, after 72 h): 30%
effect on cell proliferation ([8]; 300 μM): completely prevented cell proliferation
effect on cell proliferation ([8]; 1 mM): completely prevented cell proliferation
